# The source made the active and inactive calls. No cut-off for these calls is given here.
# Legend:
# [1] = tested on: HepG2 2.2.15; test: Cytotoxicity against human HepG2.2.15 cells assessed as reduction in cell viability incubated for 72 hrs by cell titer-glo assay; format: functional
# [2] = Half life in Sprague-Dawley rat at 2 mg/kg, po measured up to 24 hrs by LC-MS/MS analysis; format: ADME, organism-based; conditions: in vivo
# [3] = Cmax in Sprague-Dawley rat at 2 mg/kg, po measured up to 24 hrs by LC-MS/MS analysis; format: ADME, organism-based; design: route oral, dose 2 mg/kg, time <=24; conditions: in vivo
# [4] = Clearance in Sprague-Dawley rat at 1 mg/kg, iv measured up to 24 hrs by LC-MS/MS analysis; format: ADME, organism-based; conditions: in vivo
# [5] = AUC(0 to 24 hrs) in Sprague-Dawley rat at 2 mg/kg, po measured up to 24 hrs by LC-MS/MS analysis; format: ADME, organism-based; design: route oral, dose 2 mg/kg, time <=24; conditions: in vivo
# [6] = molecular target: Core antigen (Hepatitis B virus) (UniProt Q03732); test: Modulation of capsid assembly in HBV infected in human HepG2.2.15 cells assessed as maximal inhibition of viral DNA replication preincubated for 3 days followed by replacement with fresh medium containing compound and measured after 3 day by qPCR analysis; format: cell-based; conditions: filed as modulator, time 6.0 day
# Sequence of Core antigen (Hepatitis B virus) (Q03732 as listed by the source): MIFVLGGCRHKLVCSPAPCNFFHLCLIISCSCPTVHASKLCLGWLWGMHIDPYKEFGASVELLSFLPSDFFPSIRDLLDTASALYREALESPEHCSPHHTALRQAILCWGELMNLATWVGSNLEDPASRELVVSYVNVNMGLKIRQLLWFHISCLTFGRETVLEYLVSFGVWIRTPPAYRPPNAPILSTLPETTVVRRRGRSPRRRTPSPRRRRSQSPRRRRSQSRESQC
# [7] = Microsomal stability in dog liver microsome assessed as half life measured up to 24 hrs by LC-MS/MS analysis; format: ADME, Canis lupus familiaris; conditions: liver microsomes
# [8] = molecular target: Cytochrome P450 2C19 (Homo sapiens, UniProt P33261); test: Inhibition of recombinant human CYP2C19 by LC-MS/MS analysis; format: ADME
# Sequence of Cytochrome P450 2C19 (P33261 whole entry): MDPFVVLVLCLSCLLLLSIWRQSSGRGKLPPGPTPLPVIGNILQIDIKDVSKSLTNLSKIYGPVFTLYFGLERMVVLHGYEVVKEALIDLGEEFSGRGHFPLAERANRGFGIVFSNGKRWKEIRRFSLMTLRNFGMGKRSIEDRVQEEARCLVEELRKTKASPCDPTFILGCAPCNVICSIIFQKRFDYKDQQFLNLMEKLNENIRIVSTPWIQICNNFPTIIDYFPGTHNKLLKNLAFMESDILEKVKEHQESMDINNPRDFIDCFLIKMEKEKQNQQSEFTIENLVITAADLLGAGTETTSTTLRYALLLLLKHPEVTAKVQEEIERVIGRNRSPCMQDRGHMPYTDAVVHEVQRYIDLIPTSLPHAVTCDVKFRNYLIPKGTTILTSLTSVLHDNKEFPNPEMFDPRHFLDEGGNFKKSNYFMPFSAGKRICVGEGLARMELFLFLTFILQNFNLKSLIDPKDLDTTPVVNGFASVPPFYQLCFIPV
# [9] = Cmax in nude mouse at 2 mg/kg, po measured up to 24 hrs by LC-MS/MS analysis; format: ADME, organism-based; design: route oral, dose 2 mg/kg, time <=24; conditions: in vivo
# [10] = Efflux ratio of apparent permeability across basolateral to apical side over apical to basolateral side in […] by LC-MS/MS analysis; format: ADME, cell-based
# [11] = Microsomal stability in human liver microsome assessed as half life measured up to 24 hrs by LC-MS/MS analysis; format: ADME; conditions: liver microsomes
# [12] = molecular target: Cytochrome P450 2D6 (Homo sapiens, UniProt P10635); test: Inhibition of recombinant human CYP2D6 by LC-MS/MS analysis; format: ADME
# Sequence of Cytochrome P450 2D6 (P10635 whole entry): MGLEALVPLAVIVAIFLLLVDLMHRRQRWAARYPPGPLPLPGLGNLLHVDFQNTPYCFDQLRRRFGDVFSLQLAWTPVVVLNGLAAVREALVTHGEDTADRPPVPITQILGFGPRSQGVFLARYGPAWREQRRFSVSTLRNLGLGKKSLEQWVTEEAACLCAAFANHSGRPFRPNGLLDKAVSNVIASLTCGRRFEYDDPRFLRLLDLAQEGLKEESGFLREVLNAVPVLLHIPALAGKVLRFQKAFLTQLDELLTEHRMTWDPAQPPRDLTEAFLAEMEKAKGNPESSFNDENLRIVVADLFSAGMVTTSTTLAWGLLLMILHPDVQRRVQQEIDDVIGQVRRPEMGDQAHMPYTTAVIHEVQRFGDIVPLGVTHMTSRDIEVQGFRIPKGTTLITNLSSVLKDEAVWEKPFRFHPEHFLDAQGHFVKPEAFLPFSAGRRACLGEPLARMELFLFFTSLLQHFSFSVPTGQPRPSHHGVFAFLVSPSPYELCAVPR
# [13] = Apparent permeability of the compound across apical to basolateral side in […] measured up to 24 hrs by LC-MS/MS analysis; format: ADME, cell-based
# [14] = tested on: Hepatitis B virus; test: Antiviral activity against HBV infected in C57BL/6 mouse assessed as HBV DNA reduction at 3 to 30 mg/kg,po BID for 28 days by qPCR method; format: functional, organism-based; conditions: dose 3-30 mg/kg, time 28.0 day
# [15] = Solubility of the compound in phosphate buffer at pH 7.4 using amorphous form of sample by LC-MS/MS analysis; format: physicochemical
# [16] = Microsomal stability in mouse liver microsome assessed as half life measured up to 24 hrs by LC-MS/MS analysis; format: ADME; conditions: liver microsomes
# [17] = tested on: Hepatitis B virus; test: Antiviral activity against HBV infected in C57BL/6 mouse assessed as reduction on HBsAg level at 3 to 30 mg/kg,po BID for 28 days by ELISA; format: functional, organism-based; conditions: dose 3-30 mg/kg, time 28.0 day
# [18] = Plasma protein binding in rat by LC-MS/MS analysis; format: ADME, cell-free; conditions: read-out: PPB (converted)
# [19] = Apparent permeability of the compound across basolateral to apical side in […] measured up to 24 hrs by LC-MS/MS analysis; format: ADME, cell-based
# [20] = Plasma protein binding in mouse by LC-MS/MS analysis; format: ADME, cell-free; conditions: read-out: PPB (converted)
# [21] = tested on: Hepatitis B virus; test: Antiviral activity against HBV infected in C57BL/6 mouse assessed as reduction on HBeAg level at 3 to 30 mg/kg,po BID for 28 days by ELISA; format: functional, organism-based; conditions: dose 3-30 mg/kg, time 28.0 day
# [22] = molecular target: T1, Cytochrome P450 3A4 (Homo sapiens, UniProt P08684); test: Inhibition of recombinant human CYP3A4 using midazolam as substrate by LC-MS/MS analysis; format: ADME
# T1 sequence (P08684 whole entry): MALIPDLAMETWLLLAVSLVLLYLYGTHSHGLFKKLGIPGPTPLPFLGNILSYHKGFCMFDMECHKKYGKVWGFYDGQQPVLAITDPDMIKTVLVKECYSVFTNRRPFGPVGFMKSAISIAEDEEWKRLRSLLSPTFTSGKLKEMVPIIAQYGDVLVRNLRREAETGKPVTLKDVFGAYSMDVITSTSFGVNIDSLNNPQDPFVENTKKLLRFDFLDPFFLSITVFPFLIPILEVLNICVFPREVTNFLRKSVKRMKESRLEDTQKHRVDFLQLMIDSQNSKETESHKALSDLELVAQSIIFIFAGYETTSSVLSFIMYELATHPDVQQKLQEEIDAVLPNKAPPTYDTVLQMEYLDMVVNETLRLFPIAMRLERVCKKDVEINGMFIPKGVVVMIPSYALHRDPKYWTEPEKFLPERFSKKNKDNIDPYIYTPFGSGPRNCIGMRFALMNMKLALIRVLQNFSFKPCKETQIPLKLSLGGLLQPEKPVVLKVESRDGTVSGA
# [23] = AUC(0 to 24 hrs) in nude mouse at 100 mg/kg, po measured up to 24 hrs by LC-MS/MS analysis; format: ADME, organism-based; design: route oral, dose 100 mg/kg, time <=24; conditions: in vivo
# [24] = molecular target: Cytochrome P450 2C9 (Homo sapiens, UniProt P11712); test: Inhibition of recombinant human CYP2C9 by LC-MS/MS analysis; format: ADME
# Sequence of Cytochrome P450 2C9 (P11712 whole entry): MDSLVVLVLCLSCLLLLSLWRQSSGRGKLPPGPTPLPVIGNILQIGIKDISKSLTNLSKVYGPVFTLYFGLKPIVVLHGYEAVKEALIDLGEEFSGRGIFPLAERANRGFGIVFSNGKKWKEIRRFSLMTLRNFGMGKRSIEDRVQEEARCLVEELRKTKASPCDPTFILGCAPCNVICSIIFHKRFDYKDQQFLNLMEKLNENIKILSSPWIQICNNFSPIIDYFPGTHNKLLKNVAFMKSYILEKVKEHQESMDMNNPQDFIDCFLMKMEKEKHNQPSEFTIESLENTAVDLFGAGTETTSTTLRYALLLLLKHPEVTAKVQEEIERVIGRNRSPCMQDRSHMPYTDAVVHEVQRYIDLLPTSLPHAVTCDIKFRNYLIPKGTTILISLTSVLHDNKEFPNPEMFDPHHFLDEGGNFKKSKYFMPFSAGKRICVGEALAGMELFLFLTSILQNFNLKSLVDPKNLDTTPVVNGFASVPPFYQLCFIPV
# [25] = Cmax in nude mouse at 100 mg/kg, po measured up to 24 hrs by LC-MS/MS analysis; format: ADME, organism-based; design: route oral, dose 100 mg/kg, time <=24; conditions: in vivo
# [26] = Cmax in nude mouse at 10 mg/kg, po measured up to 24 hrs by LC-MS/MS analysis; format: ADME, organism-based; design: route oral, dose 10 mg/kg, time <=24; conditions: in vivo
# [27] = Clearance in Beagle dog at 1 mg/kg, iv measured up to 24 hrs by LC-MS/MS analysis; format: ADME, organism-based, Canis lupus familiaris; conditions: in vivo
# [28] = Lipophilicity, logD of compound at pH 7.4 by LC-MS/MS analysis; format: physicochemical; conditions: buffer
# [29] = Plasma protein binding in dog by LC-MS/MS analysis; format: ADME, cell-free, Canis lupus familiaris; conditions: read-out: PPB (converted)
# [30] = Plasma protein binding in human by LC-MS/MS analysis; format: ADME, cell-free; conditions: read-out: PPB (converted)
# [31] = molecular target: T2, Cytochrome P450 1A2 (Homo sapiens, UniProt P05177); test: Inhibition of recombinant human CYP1A2 by LC-MS/MS analysis; format: ADME
# T2 sequence (P05177 whole entry): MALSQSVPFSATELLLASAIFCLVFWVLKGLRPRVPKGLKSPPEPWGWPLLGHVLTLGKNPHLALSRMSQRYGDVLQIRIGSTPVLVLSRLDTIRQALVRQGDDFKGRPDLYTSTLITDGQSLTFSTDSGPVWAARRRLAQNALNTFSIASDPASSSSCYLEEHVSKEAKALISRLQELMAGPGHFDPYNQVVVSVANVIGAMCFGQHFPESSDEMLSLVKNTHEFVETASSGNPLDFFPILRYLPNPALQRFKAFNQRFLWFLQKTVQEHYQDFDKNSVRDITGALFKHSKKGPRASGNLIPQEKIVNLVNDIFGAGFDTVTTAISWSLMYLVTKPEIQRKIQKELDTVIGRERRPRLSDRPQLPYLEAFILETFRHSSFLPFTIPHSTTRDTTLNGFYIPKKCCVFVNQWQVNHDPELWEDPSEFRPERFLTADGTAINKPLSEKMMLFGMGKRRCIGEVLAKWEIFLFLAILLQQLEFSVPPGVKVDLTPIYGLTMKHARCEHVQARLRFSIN
# [32] = Clearance in nude mouse at 1 mg/kg, iv measured up to 24 hrs by LC-MS/MS analysis; format: ADME, organism-based; conditions: in vivo
# [33] = Half life in Beagle dog at 0.5 mg/kg, po measured up to 24 hrs by LC-MS/MS analysis; format: ADME, organism-based, Canis lupus familiaris; conditions: in vivo
# [34] = AUC(0 to 24 hrs) in nude mouse at 10 mg/kg, po measured up to 24 hrs by LC-MS/MS analysis; format: ADME, organism-based; design: route oral, dose 10 mg/kg, time <=24; conditions: in vivo
# [35] = AUC(0 to 24 hrs) in nude mouse at 2 mg/kg, po measured up to 24 hrs by LC-MS/MS analysis; format: ADME, organism-based; design: route oral, dose 2 mg/kg, time <=24; conditions: in vivo
# [36] = molecular target: T1, Cytochrome P450 3A4; test: Inhibition of recombinant human CYP3A4 using testosterone as substrate by LC-MS/MS analysis; format: ADME
# [37] = Cmax in Beagle dog at 0.5 mg/kg, po measured up to 24 hrs by LC-MS/MS analysis; format: ADME, organism-based, Canis lupus familiaris; design: route oral, dose 0.5 mg/kg, time <=24; conditions: in vivo
# [38] = Half life in nude mouse at 10 mg/kg, po measured up to 24 hrs by LC-MS/MS analysis; format: ADME, organism-based; conditions: in vivo
# [39] = Half life in nude mouse at 100 mg/kg, po measured up to 24 hrs by LC-MS/MS analysis; format: ADME, organism-based; conditions: in vivo
# [40] = Microsomal stability in rat liver microsome assessed as half life measured up to 24 hrs by LC-MS/MS analysis; format: ADME; conditions: liver microsomes
# [41] = AUC(0 to 24 hrs) in Beagle dog at 0.5 mg/kg, po measured up to 24 hrs by LC-MS/MS analysis; format: ADME, organism-based, Canis lupus familiaris; design: route oral, dose 0.5 mg/kg, time <=24; conditions: in vivo
# [42] = Half life in nude mouse at 2 mg/kg, po measured up to 24 hrs by LC-MS/MS analysis; format: ADME, organism-based; conditions: in vivo
# [43] = Solubility of the compound in FaSSIF using amorphous form of sample by LC-MS/MS analysis; format: physicochemical
# [44] = molecular target: Voltage-gated inwardly rectifying potassium channel KCNH2 (Homo sapiens, UniProt Q12809); test: Inhibition of human ERG by LC-MS/MS analysis; format: toxicity
# Sequence of Voltage-gated inwardly rectifying potassium channel KCNH2 (Q12809 whole entry): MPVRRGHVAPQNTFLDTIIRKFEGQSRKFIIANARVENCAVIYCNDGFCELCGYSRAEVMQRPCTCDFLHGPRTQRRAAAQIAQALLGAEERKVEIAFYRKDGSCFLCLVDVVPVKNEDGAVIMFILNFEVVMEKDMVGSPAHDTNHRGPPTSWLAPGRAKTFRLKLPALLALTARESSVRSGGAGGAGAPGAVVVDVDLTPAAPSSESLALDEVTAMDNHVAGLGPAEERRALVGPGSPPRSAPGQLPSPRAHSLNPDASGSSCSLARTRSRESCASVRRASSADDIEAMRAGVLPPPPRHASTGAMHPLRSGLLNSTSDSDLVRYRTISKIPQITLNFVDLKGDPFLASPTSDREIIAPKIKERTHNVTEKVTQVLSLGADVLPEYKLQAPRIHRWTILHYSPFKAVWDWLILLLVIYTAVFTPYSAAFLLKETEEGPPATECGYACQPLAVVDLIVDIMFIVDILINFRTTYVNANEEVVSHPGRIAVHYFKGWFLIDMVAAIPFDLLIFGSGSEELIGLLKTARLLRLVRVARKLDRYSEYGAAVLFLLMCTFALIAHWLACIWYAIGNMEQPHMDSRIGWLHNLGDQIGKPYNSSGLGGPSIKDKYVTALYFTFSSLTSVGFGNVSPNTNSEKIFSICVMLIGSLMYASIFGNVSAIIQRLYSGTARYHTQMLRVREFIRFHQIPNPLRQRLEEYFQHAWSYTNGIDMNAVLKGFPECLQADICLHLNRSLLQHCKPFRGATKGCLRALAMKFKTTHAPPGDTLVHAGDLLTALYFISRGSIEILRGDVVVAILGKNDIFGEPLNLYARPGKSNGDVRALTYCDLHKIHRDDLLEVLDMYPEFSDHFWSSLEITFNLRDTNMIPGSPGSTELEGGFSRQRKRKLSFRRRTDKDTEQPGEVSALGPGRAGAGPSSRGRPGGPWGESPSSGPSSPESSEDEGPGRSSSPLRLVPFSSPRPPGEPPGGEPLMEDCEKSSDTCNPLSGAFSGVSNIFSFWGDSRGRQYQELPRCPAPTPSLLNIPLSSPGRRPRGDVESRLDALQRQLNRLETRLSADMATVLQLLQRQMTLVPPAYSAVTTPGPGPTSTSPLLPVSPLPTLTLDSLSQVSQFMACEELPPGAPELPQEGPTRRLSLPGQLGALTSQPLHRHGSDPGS
smiles,measurement,setting,value
C[C@H](NC(=O)c1ncn2c1CN(C(=O)Nc1ccc(F)c(C#N)c1)[C@@H](C)C2)C(F)(F)F,Activity,[1],inactive
C[C@H]1Cn2ncc(C(=O)N[C@H](C)C(F)(F)F)c2CN1C(=O)Nc1ccc(F)c(F)c1,CC50,[1],> 100 µM
Cc1cc(NC(=O)N2Cc3c(C(=O)N[C@H](C)C(F)(F)F)ncn3C[C@@H]2C)ccc1F,half-life,[2],232 min
same,Cmax,[3],492 ng/mL
same,clearance,[4],26.6 mL/min/kg
same,CC50,[1],> 100 µM
same,AUC,[5],2.12 µg/mL/h
C[C@H]1CN(C(=O)Nc2ccc(F)c(F)c2)Cc2c(C(=O)N[C@H](C)C(F)(F)F)ncn21,Emax,[6],60%
same,Activity,[1],inactive
C[C@H]1Cn2cnc(C(=O)N[C@H](C)C(F)(F)F)c2CN1C(=O)Nc1cc(F)nc(F)c1,CC50,[1],> 100 µM
C[C@H]1Cn2cnc(C(=O)N[C@H](C)C(F)(F)F)c2CN1C(=O)Nc1ccc(F)c(C#N)c1,half-life,[7],> 139 min
same,IC50,[8],> 30 µM
same,Cmax,[9],1120 ng/mL
same,efflux ratio,[10],4.73
same,half-life,[11],> 139 min
same,IC50,[12],> 30 µM
same,Papp A→B at 24 h,[13],10.9 ×10⁻⁶ cm/s
same,Activity,[14],Dose-Dependent Effect
same,solubility,[15],106 µM
same,half-life,[16],> 120 min
same,Activity,[17],inactive
same,fraction unbound,[18],0.244
same,Papp B→A at 24 h,[19],51.4 ×10⁻⁶ cm/s
same,fraction unbound,[20],0.12
same,Activity,[21],inactive
same,IC50,[22],> 30 µM
same,AUC,[23],28.9 µg/mL/h
same,Cmax,[3],597 ng/mL
same,IC50,[24],> 30 µM
same,Cmax,[25],22200 ng/mL
same,Cmax,[26],4600 ng/mL
same,clearance,[27],1.1 mL/min/kg
same,logD,[28],2.27
same,fraction unbound,[29],0.23
same,clearance,[4],4.5 mL/min/kg
same,fraction unbound,[30],0.113
same,IC50,[31],> 30 µM
same,clearance,[32],5.3 mL/min/kg
same,half-life,[33],1850 min
same,CC50,[1],> 100 µM
same,AUC,[34],24.4 µg/mL/h
same,AUC,[35],7.16 µg/mL/h
same,IC50,[36],> 30 µM
same,AUC,[5],7.98 µg/mL/h
same,Cmax,[37],559 ng/mL
same,half-life,[38],203 min
same,half-life,[39],298 min
same,half-life,[40],> 67 min
same,AUC,[41],9.01 µg/mL/h
same,half-life,[42],302 min
same,solubility,[43],1640 µM
same,IC50,[44],> 30 µM

# Source: ChEMBL document CHEMBL5046309, “Discovery of SHR5133, a Highly Potent and Novel HBV Capsid Assembly Modulator” (ACS Med Chem Lett, 2022)
